Converted amounts (≈) assume the structure as drawn. Read-outs that look alike come from different tables or passages of the source.

In one series the test system is Vero cells. In words: MTT cytotoxicity test on Vero cells. The class given is cell-based, African green monkey. Particulars: 300 µg/mL, 48 h, phase contrast microscope. The protocol:
(§1) Vero cells were treated to various doses (10–500 µg/mL) for 48 h, and relative cell viability was determined by measuring the absorbance at 570 nm with an ELISA microplate.
(§2) Cytotoxicity study of the lead molecule DM2 was carried out as previously described and as in Supplementary Materials described shortly.
(§3) Text S1. Supplementary procedure for toxicity evaluation
(§4) The cell line of Vero (African green monkey kidney cells) was procured from NCCS (Pune, India) and was grown in liquid medium (DMEM) containing 100 ug/mL penicillin, 100 µg/mL streptomycin, and 10% Fetal Bovine Serum (FBS) and preserved under an atmosphere of 5% CO2 at […]
(§5) The DM2 was assayed for in vitro cytotoxicity by MTT assay using the cultured Vero cells.
(§6) Briefly, the cultured Vero cells were produced by cell dissociation with trypsin (trypsinization), collectively in a 15 mL tube. At a density of 1×10^5 cells/mL cells/well (200 µL), the cells were plated for 24-48 h at 37°C into 96-well tissue culture plate in DMEM medium containing 10 % FBS and 1% antibiotic solution. The wells were washed with sterile phosphate buffered saline (PBS) and further allowed to react with varying concentrations of the DM2 in a serum free DMEM medium. The samples were triplicated and the cells were kept for incubation at 37°C for 24 h in a humidified 5% CO2 incubator. MTT (20 µL of 5 mg/mL) was added into each well after the incubation and the cells were incubated for another 2-4 h. The end point was determined by the purple precipitation, which was clearly seen under an inverted microscope. At the end, the medium along with MTT (220 µL) were used for the aspiration of the wells and later washed with 1X PBS (200 µL). In order to dissolve formazan crystals, DMSO (100 µL) was added to the plate with shaking for 5 min. The absorbance at 570 nm was measured using a micro plate reader (Thermo Fisher Scientific, USA). The IC50 value and the percentage cell viability was calculated using GraphPad Prism 8.0 software (USA).
In general terms: Formazan colour is commonly taken as a measure of viable cells.

Series [1] can be described thus: MTT cytotoxicity test on Vero cells. The class given is cell-based, African green monkey. Particulars: African green monkey, Vero cells, MTT. The protocol:
as §1, §2, §3, §4, §5, §6

For another series, the target named is T1, MAO-A (Homo sapiens, UniProt P21397).
T1 construct: purchased Sigma-Aldrich
T1 sequence (P21397 1-527): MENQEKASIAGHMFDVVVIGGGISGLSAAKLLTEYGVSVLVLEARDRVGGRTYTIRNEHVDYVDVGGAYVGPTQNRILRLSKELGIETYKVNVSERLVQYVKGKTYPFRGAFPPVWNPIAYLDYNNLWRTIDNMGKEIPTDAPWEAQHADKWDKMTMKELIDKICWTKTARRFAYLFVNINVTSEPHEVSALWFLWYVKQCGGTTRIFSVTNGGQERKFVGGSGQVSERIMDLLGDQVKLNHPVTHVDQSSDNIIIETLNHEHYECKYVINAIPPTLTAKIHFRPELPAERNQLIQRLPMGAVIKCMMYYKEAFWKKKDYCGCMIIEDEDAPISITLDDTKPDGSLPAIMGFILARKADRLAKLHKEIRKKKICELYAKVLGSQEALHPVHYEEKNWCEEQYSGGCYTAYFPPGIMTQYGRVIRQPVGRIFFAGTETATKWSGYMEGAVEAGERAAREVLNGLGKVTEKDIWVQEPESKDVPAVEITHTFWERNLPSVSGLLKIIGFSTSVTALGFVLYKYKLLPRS
Description: MAO-A inhibition assay (recombinant enzyme, kynuramine substrate). The conditions noted are these: for remaining activity at 10 µM: read-out: Residual Activity at 10 µM (%) MAO-A. The class given is biochemical. The protocol:
(§7) Recombinant MAO-A and MAO-B were used to test the MAO inhibitory activity using the substrates kynuramine and benzylamine (0.06 mM and 0.3 mM, respectively). […] Chemicals were from Sigma-Aldrich.
(§8) MAO-A At 10 µM, compounds’ inhibitory effects on MAOs were initially recorded. […] The SI values of MAO-B were calculated by dividing the IC50 values for MAO-A and those for MAO-B. The MAO-B was used to study the kinetics of substances DM2 or DM18 at five different substrate concentrations. By using the LB plots and their secondary plots at three different inhibitor doses, the inhibition patterns were examined.

Series [2] deals with T2, MAO-B (Homo sapiens, UniProt P27338).
T2 construct: purchased Sigma-Aldrich
T2 sequence (P27338 1-520): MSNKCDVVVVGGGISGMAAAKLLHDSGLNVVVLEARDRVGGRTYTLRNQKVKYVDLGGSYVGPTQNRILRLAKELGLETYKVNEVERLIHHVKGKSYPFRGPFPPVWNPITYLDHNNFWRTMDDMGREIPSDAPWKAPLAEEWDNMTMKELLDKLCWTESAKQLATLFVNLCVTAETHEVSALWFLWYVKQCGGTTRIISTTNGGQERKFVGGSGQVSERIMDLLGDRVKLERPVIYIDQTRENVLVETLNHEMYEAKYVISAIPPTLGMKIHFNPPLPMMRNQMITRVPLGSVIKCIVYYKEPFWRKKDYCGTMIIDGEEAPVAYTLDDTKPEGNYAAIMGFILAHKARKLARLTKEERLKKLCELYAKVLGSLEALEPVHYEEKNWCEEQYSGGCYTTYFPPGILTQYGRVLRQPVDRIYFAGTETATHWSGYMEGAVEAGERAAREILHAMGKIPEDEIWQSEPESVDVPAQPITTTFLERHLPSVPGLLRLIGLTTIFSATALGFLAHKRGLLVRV
Description: MAO-B kinetic study (Lineweaver-Burk and secondary plots). The class given is biochemical. Particulars: for Inhibition pattern of MAO-B: Lineweaver-Burk plots, five substrate and three inhibitor concentrations; for Ki: secondary plots of LB slopes vs. inhibitor concentration. The protocol:
as §8

Another series deals with BChE (Equus caballus, UniProt P81908). In words: biochemical. Particulars: read-out: Residual activity at 10 µM (%) BChE. The protocol:
(§9) The AChE and BChE inhibitory activities were measured by continuous colorimetric determination method, in the presence of 0.5 mM acetylthiocholine iodide (ACTI) and butyrylthiocholine iodide […]
(§10) POP, K LAB, Daejeon, Korea). After adding the substrate, 0.5 mM 5,5-dithiobis (2-nitrobenzoic acid) (DTNB) was added as the color development solution. The BACE-1 inhibitory activity was evaluated by β-secretase (BACE1) activity detection kit (Sigma-Aldrich, St. Louis, Mo, USA) using a fluorescence spectrometer (FS-2, Scinco, Seoul, Korea). […]

The target of another series is AChE (Electrophorus electricus, UniProt O42275). Description: AChE inhibition (colorimetric, acetylthiocholine iodide). The class given is biochemical. Particulars: read-out: Residual activity at 10 µM (%) AChE. The protocol:
as §9
POP, K LAB, Daejeon, Korea). After adding the substrate, 0.5 mM 5,5-dithiobis (2-nitrobenzoic acid) (DTNB) was added as the color development solution. The BACE-1 inhibitory activity was evaluated by β-secretase (BACE1) activity detection kit (Sigma-Aldrich, St. Louis, Mo, USA) using a fluorescence spectrometer (FS-2, Scinco, Seoul, Korea).
64. […] A new and rapid colorimetric determination of acetylcholinesterase activity. Biochem. Pharmacol. 7, 88-95. […]

In series [3] the target is T2, MAO-B. Description: Reversibility of MAO-B inhibition by dialysis. Particulars: for Reversibility of MAO-B inhibition: dialysis experiment; for Relative MAO-B activity, dialyzed (AD) / Relative MAO-B activity, undialyzed (AU): ~2 × IC50 (DM2 0.13, DM18 0.24, lazabemide 0.22, pargyline 0.28 µM), 30 min preincubation; for Relative MAO-B activity, dialyzed (AD): after dialysis. The class given is biochemical. The protocol:
To identify the reversibility patterns, the relative activities for samples dialyzed (AD) and for those undialyzed (AU) were compared.
By contrasting the recovery results of samples that had been dialyzed (AD) and undialyzed (AU), reversibility patterns were determined.

The next series addresses T3, BACE-1 (Homo sapiens, UniProt P56817).
T3 construct: purchased Sigma-Aldrich
Description: BACE-1 inhibition (β-secretase activity detection kit). The class given is biochemical. The conditions noted are these: read-out: Residual activity at 10 µM (%) BACE-1. The protocol:
as §9, §10

Series [4] concerns the target T2, MAO-B. In words: MAO-B inhibition assay (recombinant enzyme, benzylamine substrate). The class given is biochemical. Particulars: for remaining activity at 10 µM: read-out: Residual Activity at 10 µM (%) MAO-B; for SI (selectivity index for MAO-B as compared to MAO-A): IC50 MAO-A divided by IC50 MAO-B. The protocol: as §7, §8
Setting [5] is: 10 µM compound, recombinant MAO-A, kynuramine 0.06 mM.
Where [6] appears, read: recombinant MAO-A, kynuramine 0.06 mM, read-out: IC50 (µM) MAO-A.
[7] abbreviates: 10 µM compound, recombinant MAO-B, benzylamine 0.3 mM.
Where [8] appears, read: recombinant MAO-B, benzylamine 0.3 mM, read-out: IC50 (µM) MAO-B.

BChE, sequence (P81908 whole entry): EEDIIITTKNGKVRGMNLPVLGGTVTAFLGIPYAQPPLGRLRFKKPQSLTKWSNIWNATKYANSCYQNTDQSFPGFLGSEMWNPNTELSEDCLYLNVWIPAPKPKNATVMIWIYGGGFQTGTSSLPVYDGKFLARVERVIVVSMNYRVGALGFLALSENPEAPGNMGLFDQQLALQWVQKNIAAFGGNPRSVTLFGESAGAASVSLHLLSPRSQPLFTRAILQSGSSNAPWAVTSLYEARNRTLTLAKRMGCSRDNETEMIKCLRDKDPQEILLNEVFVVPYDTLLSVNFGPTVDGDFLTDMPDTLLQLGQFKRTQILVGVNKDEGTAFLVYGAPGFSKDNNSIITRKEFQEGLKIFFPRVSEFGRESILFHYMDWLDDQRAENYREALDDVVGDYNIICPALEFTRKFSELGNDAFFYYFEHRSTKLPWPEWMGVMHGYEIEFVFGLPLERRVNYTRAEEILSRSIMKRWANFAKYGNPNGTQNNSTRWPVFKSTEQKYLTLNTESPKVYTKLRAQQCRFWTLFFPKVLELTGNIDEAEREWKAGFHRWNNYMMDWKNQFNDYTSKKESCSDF
AChE, sequence (O42275 24-633): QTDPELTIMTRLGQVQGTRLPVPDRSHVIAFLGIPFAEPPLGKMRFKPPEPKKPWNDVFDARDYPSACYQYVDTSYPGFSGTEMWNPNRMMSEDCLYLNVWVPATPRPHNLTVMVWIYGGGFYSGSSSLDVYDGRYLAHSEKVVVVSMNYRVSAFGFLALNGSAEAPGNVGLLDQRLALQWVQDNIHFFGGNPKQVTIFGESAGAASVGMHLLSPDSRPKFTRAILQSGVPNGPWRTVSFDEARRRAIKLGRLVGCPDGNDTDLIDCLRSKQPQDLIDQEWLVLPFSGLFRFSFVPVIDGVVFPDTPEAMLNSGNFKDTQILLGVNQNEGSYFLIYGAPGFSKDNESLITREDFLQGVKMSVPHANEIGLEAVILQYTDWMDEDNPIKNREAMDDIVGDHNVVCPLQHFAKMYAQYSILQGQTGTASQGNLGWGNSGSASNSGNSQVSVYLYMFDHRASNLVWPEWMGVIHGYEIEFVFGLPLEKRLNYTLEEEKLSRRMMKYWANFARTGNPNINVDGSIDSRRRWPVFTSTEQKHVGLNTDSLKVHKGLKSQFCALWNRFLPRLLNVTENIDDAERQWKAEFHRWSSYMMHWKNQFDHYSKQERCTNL
T3 sequence (P56817 46-501): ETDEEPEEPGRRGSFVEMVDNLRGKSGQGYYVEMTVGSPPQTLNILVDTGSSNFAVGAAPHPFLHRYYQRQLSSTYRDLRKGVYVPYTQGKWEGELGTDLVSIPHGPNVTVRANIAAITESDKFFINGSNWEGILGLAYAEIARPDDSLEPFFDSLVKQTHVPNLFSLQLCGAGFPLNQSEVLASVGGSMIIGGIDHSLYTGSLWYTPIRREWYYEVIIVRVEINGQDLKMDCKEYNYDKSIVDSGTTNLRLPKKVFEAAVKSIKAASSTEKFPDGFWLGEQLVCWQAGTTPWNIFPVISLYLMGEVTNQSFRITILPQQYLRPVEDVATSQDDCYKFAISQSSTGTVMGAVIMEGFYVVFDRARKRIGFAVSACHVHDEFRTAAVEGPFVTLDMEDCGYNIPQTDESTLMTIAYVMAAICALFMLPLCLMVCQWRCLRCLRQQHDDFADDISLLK

With `COc1ccc(C(=O)/C=C/c2ccccc2Cl)c(OC)c1` [DM2], the “Morphological observation of Vero cells” value in the series on Vero cells is “cytotoxicity was evident in cell shrinkage and blebbing, and cellular density decreased”. Moreover, in [1] (Vero cells (kidney epithelial cells), 10–500 µg/mL, read-out: IC50 (Vero cell viability)), the IC50 (commonly the point on the concentration scale where inhibition reaches its midpoint) at 48 h worked out at 183 µg/mL (≈ 605 µM). In addition, the viability – broadly, a per cent measure of how many cells are alive, often set against a control – at 48 h, 100 µg/mL in series [1] (100 µg/mL, read-out: Cells alive (relative cell viability)) amounted to 80%. The remaining activity at 10 µM on MAO-A (setting [5]) was 41.5 ± 1.59%. The IC50 on MAO-A (setting [6]) came to 6.29 ± 0.432 µM. On MAO-B [2], the “Inhibition pattern of MAO-B” value was “competitive inhibitors” and the affinity corresponds to a Ki of 32 ± 4 nM. Further, on BChE, the remaining activity at 10 µM stood at 64.16 ± 0.44%. For the same compound, on AChE, the remaining activity at 10 µM came to 71.9 ± 2.87%. Also, on MAO-B [3], the “Reversibility of MAO-B inhibition” value was “reversible”; the “Relative MAO-B activity, dialyzed (AD)” value is 74.0%; the “Relative MAO-B activity, undialyzed (AU)” value is listed as 36.0%. The remaining activity at 10 µM on BACE-1 (10 µM compound) turned out to be 100.5 ± 0.18%.
Regarding `COc1ccc(C(=O)/C=C/c2ccccc2F)cc1OC` [DM18], the remaining activity at 10 µM is 100 ± 0.01% at MAO-A (setting [5]); 59.5 ± 4.08% at BChE; 8.87 ± 1.08% on MAO-B [4] (setting [7]); 78.5 ± 4.89% at AChE; 99.94 ± 0.01% at BACE-1 (10 µM compound). The IC50 is more than 40 µM on MAO-A (setting [6]) and 0.118 ± 0.036 µM on MAO-B [4] (setting [8]). Also, on MAO-B [2], the “Inhibition pattern of MAO-B” value was “competitive inhibitors”. For the same compound, at MAO-B [2], the Ki (as a rule, a dissociation constant, usually derived from enzyme kinetics or from competition with a known ligand) is 45 ± 1 nM. Also, on MAO-B [4], the “SI (selectivity index for MAO-B as compared to MAO-A)” value is more than 338.98. In addition, the “Times more MAO-B inhibition than meta-F analogue DM19” value on MAO-B [4] (ortho-F (DM18) versus meta-F (DM19)) is 3.75. For the same compound, on MAO-B [3], the “Reversibility of MAO-B inhibition” value is reported as “reversible”. In addition, the “Relative MAO-B activity, dialyzed (AD)” value on MAO-B [3] was 76.6%. Besides, the “Relative MAO-B activity, undialyzed (AU)” value on MAO-B [3] turned out to be 40.1%.
For the compound `COc1ccc(C(=O)/C=C/c2cccc(Br)c2)cc1OC` [DM16], the remaining activity at 10 µM was determined as 76.9 ± 0.88% at MAO-A (setting [5]); 91.2 ± 1.43% at BChE; 11.8 ± 5.27% on MAO-B [4] (setting [7]); 82.7 ± 9.21% at AChE; 99.74 ± 0.04% at BACE-1 (10 µM compound). The results for the IC50 at MAO-A (setting [6]) and at MAO-B [4] (setting [8]) were more than 40 µM and 1.11 ± 0.26 µM, respectively. For the same compound, the “SI (selectivity index for MAO-B as compared to MAO-A)” value at MAO-B [4] is listed as more than 35.94.
Consider `COc1ccc(C(=O)/C=C/c2cccc(F)c2)cc1OC` [DM19], for which the remaining activity at 10 µM at MAO-A (setting [5]) amounted to 93.7 ± 7.16%; on BChE, 103 ± 8.13%; on MAO-B [4] (setting [7]), 3.94 ± 1.76%; on AChE, 70 ± 2.02%; on BACE-1 (10 µM compound), 99.86 ± 0.12%. Moreover, the IC50 on MAO-A (setting [6]) was more than 40 µM; at MAO-B [4] (setting [8]), 0.45 ± 0.071 µM. In addition, on MAO-B [4], the “SI (selectivity index for MAO-B as compared to MAO-A)” value is recorded as more than 88.89.
As to `COc1ccc(C(=O)/C=C/c2ccccc2)c(OC)c1` [DM1], the IC50 on MAO-A is 15.4 ± 1.97 µM; at MAO-B [4], 0.927 ± 0.021 µM. Also, the remaining activity at 10 µM on MAO-A was 57.2 ± 1.91%; on BChE it was 93.21 ± 0.3%; at MAO-B [4], 17.6 ± 0.74%; at AChE, 75.6 ± 2.35%; on BACE-1, 92.67 ± 0.26%. In addition, the “SI (selectivity index for MAO-B as compared to MAO-A)” value on MAO-B [4] is given as 16.61.

Values taken from publication PMC9503132, “Development of Halogenated-Chalcones Bearing with Dimethoxy Phenyl Head as Monoamine Oxidase-B Inhibitors” (Pharmaceuticals, 2022).
